Molecules are shown by their SMILES.

The nature of this series: gradient 5% acetonitrile 3 min, to 50% in 2 min, to 85% in 15 min, held 3 min, 100 µL/min. To be noted: column: Zorbax Extend-C18 2.1 x 50 mm; eluents: water / acetonitrile, 0.1% formic acid. Put shortly:
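Over 3 months, pure standards in mixtures of ~100 molecules were run by HPLC coupled to a quadrupole time-of-flight mass spectrometer in positive and negative ionization mode. The column was a Zorbax Extend-C18 (2.1 × 50 mm, 1.8 μm) at 100 μL/min, eluted with water and acetonitrile each holding 0.1% formic acid, with 40 μL dead and 900 μL dwell volumes. Retention time was determined from adduct peaks chosen by software and checked manually.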
In turn, `CN1C(=O)CCC2(CNC(=O)Nc3ccccc3F)CCCC=C12` (centres undefined) displayed an RP-LC retention time of 797 s.

Compound `O=c1[nH]cc(S(=O)(=O)NC2CC3CCC2C3)c(=O)[nH]1` (centres undefined) showed an RP-LC retention time of 637 s.

Compound `COc1cc(NC(=O)Nc2c(-c3ccc(F)cc3)nc3ccccn23)cc(OC)c1` returned an RP-LC retention time of 678 s.

Compound `CC(C)(C)OC(=O)COC(=O)c1cn(-c2cccc(F)c2)c(=O)c2ccccc12` came in with an RP-LC retention time of 1160 s.

In the case of `O=C(c1ccc(F)c(F)c1Nc1ccc(I)cc1F)N1CC(O)([C@H]2CCCCN2)C1`, the RP-LC retention time came out at 822 s.

Compound `CC(C)C(=O)N1CCc2ccccc2C1C(=O)N1CCN(c2ccc(F)cc2)CC1` (centres undefined) displayed an RP-LC retention time of 930 s.

Compound `Cc1ccc(Cn2c(N3CCC(C(=O)NCC(C)C)CC3)nc3ccsc3c2=O)cc1` showed an RP-LC retention time of 920 s.

`Cc1ccc(N2CC(c3nc(-c4ccc5oc(C)nc5c4)no3)CC2=O)cc1` (centres undefined) displayed an RP-LC retention time of 903 s.

Take `O=C(CN1C(=O)NC2(CCCCC2)C1=O)NCc1cccc(Br)c1`: the RP-LC retention time is 772 s.

Consider `Cc1cc(C)cc(NC(=O)Cn2cc(-c3nnc(C)o3)c3ccccc32)c1`, for which the RP-LC retention time amounted to 903 s.

With `O=C(C1=CN(c2ccc3c(c2)OCCO3)c2ccccc2S1(=O)=O)N1CCOCC1`, the RP-LC retention time was determined as 730 s.

`COc1ccc(C(O)CN2CCN(c3ncccn3)CC2)cc1OC` (centres undefined) came in with an RP-LC retention time of 566 s.

Compound `Cc1cccc(NC(=O)N2CCN(c3cnn4c(C5CC5)nnc4c3)CC2)c1` gave an RP-LC retention time of 647 s.

Regarding `CCC(C)NC(=O)N1CCC(N2CCN(Cc3cccc(C)c3)C2=O)CC1` (centres undefined), the RP-LC retention time came out at 784 s.

`COCc1ncc(C)n1CC1CCN(S(=O)(=O)c2cccc3nsnc23)CC1` gave an RP-LC retention time of 641 s.

Consider `N#Cc1ccc(NC(=O)Cn2cccc(-c3nc(-c4ccc(Br)cc4)no3)c2=O)cc1`, for which the RP-LC retention time was 952 s.

Regarding `CNC(=O)C1CCCN(c2nc3ncn(CC(=O)Nc4cc(OC)ccc4OC)c(=O)c3s2)C1` (centres undefined), the RP-LC retention time amounted to 705 s.

With `Cn1c(C(=O)NC2CC2)cc2c1CCN(Cc1ccc(F)cc1)C2`, the RP-LC retention time was 590 s.

As for `CC(C)n1cnc2ccc(-c3noc(-c4ccc(F)cc4)n3)cc21`, the RP-LC retention time came out at 742 s.

The compound `O=C(Nc1nnc(SCc2cccnc2)s1)c1cc(C2CC2)on1` registered an RP-LC retention time of 598 s.

The compound `Cc1ccc(-n2c(N)cc(=O)nc2SCC(=O)Nc2nc3ccc(C)cc3s2)cc1` gave an RP-LC retention time of 686 s.

As for `NS(=O)(=O)c1ccc(CCNC(=O)c2nc(Cn3nc(-c4ccc(F)cc4)ccc3=O)no2)cc1`, the RP-LC retention time came out at 733 s.

For the compound `CCc1cc(=O)n(CC(=O)Nc2ccc(OC)c(F)c2)c(N2CCOCC2)n1`, the RP-LC retention time stood at 719 s.

In turn, `O=C(NCc1cc(F)cc(F)c1)C1CCCN(c2nccnc2Sc2ccccc2)C1` (centres undefined) came in with an RP-LC retention time of 1030 s.

Consider `CC(=O)c1ccc(NC(=O)Cn2cccc2-c2nc(-c3ccc4c(c3)OCO4)no2)cc1`, for which the RP-LC retention time was determined as 923 s.

Take `O=C(CC1CCN(C(=O)Nc2ccc(Br)cc2F)CC1)N1CCCCC1`: the RP-LC retention time was found to be 835 s.

As for `Cc1ccc(N2CCC(NC(=O)Nc3cc(F)cc(F)c3)C2=O)cc1C` (centres undefined), the RP-LC retention time was found to be 903 s.

Consider `COc1ccc(OC)c(NC(=O)c2cc(NC(=O)C3CCC3)cc3nc(C)ccc23)c1`, for which the RP-LC retention time is 682 s.

Compound `Cc1cc(C)cc(-c2nnc3ccc(Cl)nn23)c1` yielded an RP-LC retention time of 859 s.

`CCNC(=O)c1cnn(-c2cc(-c3nc(C)no3)ccn2)c1C` showed an RP-LC retention time of 706 s.

For `CCCC(=O)N1CCc2c([nH]c3ccccc23)C1c1ccc(C)cc1` (centres undefined), the RP-LC retention time was found to be 1150 s.

The compound `COC(=O)c1ccccc1NS(=O)(=O)c1ccc(Br)cc1` showed an RP-LC retention time of 1030 s.

In turn, `CC(=O)N[C@@H]1CN(C(=O)c2cc(Cl)ccc2F)C[C@H]1CO` showed an RP-LC retention time of 608 s.

In turn, `Cc1ccc(C)c(N2CCN(S(=O)(=O)c3cc(-c4csc(C)n4)sc3C)CC2)c1` yielded an RP-LC retention time of 1360 s.

For `O=C(NCCc1ccco1)c1ccc2ccnc(N3CCN(c4ccc(Cl)cc4)CC3)c2c1`, the RP-LC retention time stood at 887 s.

With `O=C(c1cccs1)N1CCc2cc(-c3csc(C4CC4)n3)ccc21`, the RP-LC retention time was 1150 s.

The compound `Cc1nnc2ccc(NC(=O)Nc3ccccc3F)cn12` showed an RP-LC retention time of 658 s.

Regarding `Cc1nc2ccc(C(=O)NC(C)C)cc2nc1C`, the RP-LC retention time came out at 649 s.

As to `Cc1ccc(-n2nc(N3CCCC(C(=O)NCc4ccc(OC(C)C)cc4)C3)ccc2=O)cc1Cl` (centres undefined), the RP-LC retention time stood at 999 s.

For `CC(C)CC(=O)Nc1cnc(-c2ccccc2)nc1`, the RP-LC retention time came to 906 s.

`CCCNC(=O)Cn1ccn2nc(-c3ccccc3)c(CO)c2c1=O` came in with an RP-LC retention time of 684 s.

`CCCNC(=O)N1CCC2(CC1)NCCc1c2[nH]c2ccccc12` gave an RP-LC retention time of 613 s.

In turn, `CCN1C(=O)c2cccnc2Sc2cc(CNC(=O)c3ccc(OC)c(F)c3)ccc21` had an RP-LC retention time of 763 s.

`CN(C)c1nc2cc(C(=O)NCC3CC3)sc2n1-c1ccccc1`: the RP-LC retention time worked out at 702 s.

For `O=C(CCc1conc1-c1ccc(F)cc1)NC1CCN(Cc2ccccc2)CC1`, the RP-LC retention time was determined as 657 s.

`O=C(CCc1nnn2c1CN(C(=O)Nc1ccc3c(c1)OCCO3)CC2)N1CCCC1`: the RP-LC retention time was 625 s.

`O=C(NC1CCCC1)N1c2ccccc2CC1c1noc(C2CCOCC2)n1` (centres undefined) yielded an RP-LC retention time of 854 s.

Consider `CCC(C)NC(=O)Cn1c(=O)c2cnc(-c3ccccc3)nc2n(C)c1=O` (centres undefined), for which the RP-LC retention time stood at 854 s.

Regarding `Cc1ccc(N(C)S(=O)(=O)c2cc(-c3[nH]ncc3C(=O)N(C)C)oc2C)cc1`, the RP-LC retention time came to 729 s.

Compound `O=c1n(Cc2ccc(Cl)cc2)nc2c(S(=O)(=O)N3CCCCCC3)cccn12` had an RP-LC retention time of 991 s.

`COc1ccc(-c2nnc(-c3cc(S(=O)(=O)N4CCN(C)CC4)ccc3Cl)o2)cc1` had an RP-LC retention time of 682 s.

`Cc1ccc(C)c(N2CCN(c3ccnc(SCC(=O)NC(C)CCc4ccccc4)n3)CC2)c1` (centres undefined) registered an RP-LC retention time of 1020 s.

The compound `Cc1nc2cccnc2n1C1CCN(C(=O)Nc2ccc3c(c2)OCCO3)CC1` registered an RP-LC retention time of 612 s.

With `COc1ccc(S(=O)(=O)N2CCCC(C(=O)Nc3cccc(SC)c3)C2)cc1C` (centres undefined), the RP-LC retention time was 1030 s.

In turn, `CCOC(=O)C1CCc2sc(NC(=O)c3n[nH]c4ccccc34)nc21` (centres undefined) showed an RP-LC retention time of 852 s.

As for `COc1ccc(NC(=O)Cn2nc3nc(N4CCSCC4)ccn3c2=O)cc1OC`, the RP-LC retention time stood at 639 s.

In turn, `C[C@@H](O)[C@H](NC(=O)c1ccc(C#Cc2ccc(CN3CCOCC3)cc2)cc1)C(=O)NO` came in with an RP-LC retention time of 629 s.

The compound `CC(=O)Nc1ccc(S(=O)(=O)N2CCN(S(=O)(=O)N(C)C)CC2)cc1` showed an RP-LC retention time of 653 s.

With `CCOC(=O)c1nc(Nc2cc(OC)ccc2OC)c2ccccc2n1`, the RP-LC retention time is 911 s.

In the case of `C/C(O)=C(\C#N)C(=O)Nc1ccc(C(F)(F)F)cc1`, the RP-LC retention time turned out to be 858 s.

For the compound `Cc1cccc(NS(=O)(=O)c2ccc(-c3nnc(C4CCC4)o3)o2)c1C`, the RP-LC retention time was 949 s.

`O=C(CCSc1ccccc1)Nc1cccc(-c2ccn[nH]2)c1`: the RP-LC retention time amounted to 769 s.

As to `CCOc1ccccc1NC(=O)N1CCCC1c1nc(-c2ccc(OC)cc2)no1` (centres undefined), the RP-LC retention time came out at 1100 s.

`O=S(=O)(Nc1ccc(F)cc1)c1cccnc1Nc1ccc(F)cc1` came in with an RP-LC retention time of 1060 s.

`Cn1c(C(=O)NCc2ccccc2)cc2sccc21` registered an RP-LC retention time of 892 s.

As for `O=C(Cn1c(=O)n(Cc2ccc3c(c2)OCO3)c(=O)c2ncccc21)c1ccccc1`, the RP-LC retention time is 818 s.

Regarding `COc1ccc(N2CC(c3noc(-c4ccc(C(C)(C)C)cc4)n3)CC2=O)cc1` (centres undefined), the RP-LC retention time is 1200 s.

As for `Cc1nc2c(SCC(=O)Nc3ccc4c(c3)OCO4)nnc(-c3ccccc3)c2s1`, the RP-LC retention time worked out at 847 s.

In the case of `CN(Cc1ccco1)C(=O)c1ccc(NC(=O)C2CC2)cc1N1CCCCCC1`, the RP-LC retention time was 869 s.

`CCOC(=O)Cc1ccc(NC(=O)N2CCCC2c2c(C)noc2C)cc1` (centres undefined): the RP-LC retention time worked out at 775 s.

`Cc1ccn2c(NC(=O)c3cccc([N+](=O)[O-])c3)c(-c3ccc(F)cc3)nc2c1` gave an RP-LC retention time of 863 s.

Consider `COC(=O)c1ncn2c1C(=O)N(Cc1ccc(Cl)cc1)C(C)(C(=O)NC1CCCCC1)C2` (centres undefined), for which the RP-LC retention time stood at 798 s.

`Cc1ncc2c(n1)CCCN(CC(=O)NC1CCCCCC1)C2=O` gave an RP-LC retention time of 682 s.

With `Cc1noc(C)c1C1CCCN1C(=O)Cc1ccccc1F` (centres undefined), the RP-LC retention time amounted to 736 s.

Compound `Cc1ccn2cc(C(=O)NCc3cccs3)nc2c1` came in with an RP-LC retention time of 591 s.

For the compound `Cc1noc(C)c1S(=O)(=O)N1CCC(c2noc(COCC3CC3)n2)CC1`, the RP-LC retention time stood at 931 s.

For `O=C(NCCOc1cc(N2CCCC2)ncn1)NCc1ccccc1`, the RP-LC retention time came out at 575 s.

The compound `CCOC(=O)c1c(CN2CCN(C)CC2)n(-c2ccccc2)c2cc(Br)c(OC)cc12` had an RP-LC retention time of 850 s.

The compound `CCN1C=C(C(=O)OCc2cc(C)ccc2C)C(C)=NS1(=O)=O` yielded an RP-LC retention time of 1060 s.

These data come from the METLIN SMRT retention time set (Domingo-Almenara et al. 2019).
